Experimental data published in US20120027741A1 (priority 2009, published 2012).
Structures can show the parent of a compound that is named as a salt. Where two headings read alike, the source gives them in different places.

How the values were obtained:
Type in all cases: in vivo
Phytophthora infestans = test: whole plant or invertebrate; details: tomatoes, 3 days after inoculation; for pest or weed control at 12.5 ppm: read-out: Efficacy in % found, Table 2
Pythium ultimum = test: Pythium test (cotton)/seed treatment; details: emerged seedlings after 7 days
Experimental: Pythium Test (Cotton)/Seed Treatment
The test is performed under greenhouse conditions.
Cotton seeds, treated with the active compound or compound combinations, solved in N-methyl-2-pyrrolidon and diluted with water to the desired dosages, were sown in 6*6 cm pots containing 4 cm of a 1:1 mix of steamed field soil and sand.
Perlite was incubated with mycelium fragments of Pythium ultimum. 1 ml of infected perlite was scattered between the treated cotton seeds. Seeds were then covered by light expanded clay aggregate. Pots were incubated in the greenhouse 7 days at 20° C. and 80% relative humidity.
Assessment consisted of counting of emerged seedlings. 0% means an efficacy which to corresponds to that of the control, while an efficacy of 100% means that all seedlings have emerged.

Sphaerotheca fuliginea = test: Sphaerotheca test (cucumbers)/protective; details: 7 days after inoculation
Experimental: Sphaerotheca Test (Cucumbers)/Protective
(§1) Solvent: • 24,5 parts by weight of acetone • 24,5 parts by weight of dimethylacetamide
(§2) Emulsifier: • 1 part by weight of alkylaryl polyglycol ether
(§3) To produce a suitable preparation of active compound, 1 part by weight of active compound is mixed with the stated amounts of solvent and emulsifier, and the concentrate is diluted with water to the desired concentration.
To test for protect activity, young plants are sprayed with the preparation of active compound at the stated rate of application. After the spray coating has dried on, the plants are inoculated with to an aqueous spore suspension of Sphaerotheca fuliginea. The plants are then placed in a greenhouse at approximately 23° C. and a relative atmospheric humidity of approximately 70%.
The test is evaluated 7 days after the inoculation. 0% means an efficacy which corresponds to that of the control, while an efficacy of 100% means that no disease is observed.

Botrytis cinerea = test: Botrytis test (beans)/protective; details: 48 h, 2 days after inoculation, read-out: Efficacy in % found; for pest or weed control at 5 ppm: Table 9, 5 ppm a.i.; for pest or weed control at 10 ppm: Table 9, 10 ppm a.i.
Experimental: Botrytis Test (Beans)/Protective
as §1, §2, §3
To test for protective activity, young plants are sprayed with the preparation of active compound. After the spray coating has dried on, 2 small pieces of agar covered with growth of Botrytis cinerea are placed on each leaf. The inoculated plants are placed in a darkened chamber at 20° C. and a relative atmospheric humidity of 100%.
2 days after the inoculation, the size of the lesions on the leaves is evaluated. 0% means an efficacy which corresponds to that of the control, while an efficacy of 100% means that no disease is observed.

[1] = Podosphaera fuliginea, 168 h, Table 7, 1 ppm a.i., read-out: Efficacy in % found
[2] = Phytophthora infestans, 72 h, read-out: Efficacy in % found, Table 1, 0.4 ppm a.i.
[3] = Phytophthora infestans, 72 h, 12.5 ppm a.i.
[4] = Phytophthora infestans, 72 h, read-out: Efficacy in % found, Table 1, 40 ppm a.i.

Question: What does the source list for `O=C(NCc1ncc(C(F)(F)F)cc1Cl)c1c(Cl)cccc1Cl` [fluopicolide]?
Answer: Efficacy in % found (Phytophthora infestans; Table 1, 0.4 ppm a.i.): 18%; Efficacy in % found (Pythium ultimum; Table 11, 10 g a.i./dt): 26%

Question: For `CCCC1COC(Cn2cncn2)(c2ccc(Cl)cc2Cl)O1` (centres unmarked) [propiconazole], which pest or weed control at 1 ppm (Sphaerotheca fuliginea; [1]) is on record?
Answer: 13%

Question: For `CCC(C)(NC(=O)c1cc(Cl)c(C)c(Cl)c1)C(=O)CCl` (centres unmarked) [zoxamide], which pest or weed control at 0.4 ppm (Phytophthora infestans; [2]) is on record?
Answer: 16%

Question: For `Cc1ccc(C(C)NC(=O)[C@@H](NC(=O)OC(C)C)C(C)C)cc1` (some centres unmarked) [iprovalicarb], which “Efficacy in % found” value (Phytophthora infestans; Table 1, 0.4 ppm a.i.) is on record?
Answer: 0%

Question: What does the source list for `CSC1=N[C@@](C)(c2ccccc2)C(=O)N1Nc1ccccc1` [fenamidone]?
Answer: pest or weed control at 0.4 ppm (Phytophthora infestans; [2]): 57%; Efficacy in % found (Pythium ultimum; Table 11, 1 g a.i./dt): 4%

Question: Which pest or weed control at 1 ppm (Sphaerotheca fuliginea; [1]) does the source give for `Fc1ccc([C@]2(Cn3cncn3)O[C@H]2c2ccccc2Cl)cc1` (racemic) [epoxiconazole] here?
Answer: 63%

Question: How did the “Efficacy in % found” value (Phytophthora infestans; Table 1, 0.4 ppm a.i.) turn out when `CO/C=C(/C(=O)OC)c1ccccc1Oc1cc(Oc2ccccc2C#N)ncn1` [azoxystrobin] was run?
Answer: 30%

Question: What about the “Efficacy in % found” value (Sphaerotheca fuliginea; Table 8, 1 ppm a.i.) of the same compound?
Answer: 30%

Question: For metiram, which “Efficacy in % found” value (Phytophthora infestans; Table 4, 100 ppm a.i.) is on record?
Answer: 26%

Question: How did the pest or weed control at 12.5 ppm (Phytophthora infestans; [3]) turn out when `N#Cc1c(Cl)c(Cl)c(Cl)c(C#N)c1Cl` [chlorothalonil] was run?
Answer: 20%

Question: For `COc1ccc(C(=CC(=O)N2CCOCC2)c2ccc(Cl)cc2)cc1OC` [dimethomorph], which pest or weed control at 0.4 ppm (Phytophthora infestans; [2]) is on record?
Answer: 41%

Question: With `CCNC(=O)NC(=O)/C(C#N)=N/OC` [cymoxanil] as the compound, how does the pest or weed control at 1.25 ppm (Phytophthora infestans; Phytophthora infestans, 72 h, read-out: Efficacy in % found, Table 6, 1.25 ppm a.i.) read?
Answer: 29%

Question: Which pest or weed control at 0.5 ppm (Sphaerotheca fuliginea; Podosphaera fuliginea, 168 h, Table 7, 0.5 ppm a.i., read-out: Efficacy in % found) does the source give for `O=c1c2cc(F)ccc2nc(-n2cncn2)n1-c1ccc(Cl)cc1Cl` [fluquinconazole] here?
Answer: 63%

Question: `OC(Cc1ccccc1Cl)(Cn1nc[nH]c1=S)C1(Cl)CC1` (centres unmarked) [prothioconazole] was tested. Which pest or weed control at 1 ppm (Sphaerotheca fuliginea; [1]) did it give?
Answer: 50%

Question: How did the “Efficacy in % found” value (Phytophthora infestans; Table 2, 6.25 ppm a.i.) turn out when `[Cu+2].[OH-].[OH-]` [copper hydroxide] was run?
Answer: 73%

Question: Which “Efficacy in % found” value (Phytophthora infestans; Table 1, 1 ppm a.i.) does the source give for `CCCCCCCCc1c(CC)nc2ncnn2c1N` [ametoctradin] here?
Answer: 22%

Question: For `CC(C)NC(=O)N1CC(=O)N(c2cc(Cl)cc(Cl)c2)C1=O` [iprodione], which pest or weed control at 50 ppm (Botrytis cinerea; Table 9, 50 ppm a.i.) is on record?
Answer: 70%

Question: What does the source list for `COC(=O)[C@@H](C)N(C(=O)Cc1ccccc1)c1c(C)cccc1C` [benalaxyl-M]?
Answer: Efficacy in % found (Phytophthora infestans; Table 5, 1 ppm a.i.): 28%; Efficacy in % found (Pythium ultimum; Table 11, 1 g a.i./dt): 4%

Question: For `C#CCOc1ccc(CCNC(=O)C(OCC#C)c2ccc(Cl)cc2)cc1OC` (centres unmarked) [mandipropamid], which “Efficacy in % found” value (Phytophthora infestans; Table 1, 0.4 ppm a.i.) is on record?
Answer: 84%

Question: And the “Efficacy in % found” value (Pythium ultimum; Table 11, 10 g a.i./dt)?
Answer: 0%

Question: For `Cc1cc(C)nc(Nc2ccccc2)n1` [pyrimethanil], which pest or weed control at 25 ppm (Botrytis cinerea; Table 9, 25 ppm a.i.) is on record?
Answer: 30%

Question: For `[Cl-].[Cu+2].[Cu+2].[OH-].[OH-].[OH-]` [copper oxychloride], which “Efficacy in % found” value (Phytophthora infestans; Table 2, 6.25 ppm a.i.) is on record?
Answer: 60%

Question: How did the pest or weed control at 0.4 ppm (Phytophthora infestans; [2]) turn out when `CO/N=C(/C1=NOCCO1)c1ccccc1Oc1ncnc(Oc2ccccc2Cl)c1F` [fluoxastrobin] was run?
Answer: 36%

Question: For `Cn1cc(C(=O)Nc2ccccc2-c2cc(F)c(F)c(F)c2)c(C(F)F)n1` [3-(difluoromethyl)-1-methyl-N-(3′,4′,5′-trifluorobiphenyl-2-yl)-1H-pyrazole-4-carboxamide], which pest or weed control at 100 ppm (Phytophthora infestans; Phytophthora infestans, 72 h, read-out: Efficacy in % found, Table 3, 100 ppm a.i.) is on record?
Answer: 35%

Question: And the pest or weed control at 5 ppm (Botrytis cinerea)?
Answer: 65%

Question: `CC(C)[C@H](NC(=O)O)C(=O)N[C@H](C)c1nc2ccc(F)cc2s1` [benthiavalicarb] was tested. Which “Efficacy in % found” value (Phytophthora infestans; Table 1, 0.1 ppm a.i.) did it give?
Answer: 48%

Question: How did the pest or weed control at 0.1 ppm (Phytophthora infestans; Phytophthora infestans, 72 h, read-out: Efficacy in % found, Table 1, 0.1 ppm a.i.) turn out when `Cc1cc(C(F)(F)F)nn1CC(=O)N1CCC(c2nc(C(=O)N(C)[C@@H]3CCCc4ccccc43)cs2)CC1` [N-methyl-2-(1-{[5-methyl-3-(trifluoromethyl)-1H-pyrazol-1-yl]acetyl}piperidin-4-yl)-N-[(1R)-1,2,3,4-tetrahydronaphthalen-1-yl]-1,3-thiazole-4-carboxamide] was run?
Answer: 48%

Question: How did the “Efficacy in % found” value (Phytophthora infestans; Table 2, 12.5 ppm a.i.) turn out when `OP(O)O` [phosphorous acid] was run?
Answer: 0%

Question: With `CC(C)C1C2CCC1c1c(NC(=O)c3cn(C)nc3C(F)F)cccc12` (centres unmarked) [isopyrazam] as the compound, how does the “Efficacy in % found” value (Phytophthora infestans; Table 1, 40 ppm a.i.) read?
Answer: 20%

Question: With `CON=C(C(=O)OC)c1ccccc1CON=C(C)c1cccc(C(F)(F)F)c1` [trifloxystrobin] as the compound, how does the pest or weed control at 2.5 ppm (Sphaerotheca fuliginea; Podosphaera fuliginea, 168 h, Table 7, 2.5 ppm a.i., read-out: Efficacy in % found) read?
Answer: 58%

Question: How did the pest or weed control at 2 ppm (Sphaerotheca fuliginea; Podosphaera fuliginea, 168 h, Table 7, 2 ppm a.i., read-out: Efficacy in % found) turn out when `CC(C)(C)C(O)(CCc1ccc(Cl)cc1)Cn1cncn1` (centres unmarked) [tebuconazole] was run?
Answer: 13%

Question: `COC(=O)N(OC)c1ccccc1COc1ccn(-c2ccc(Cl)cc2)n1` [pyraclostrobin] was tested. Which pest or weed control at 0.4 ppm (Phytophthora infestans; [2]) did it give?
Answer: 28%

Question: How did the pest or weed control at 0.4 ppm (Phytophthora infestans; [2]) turn out when `C[C@@]1(c2ccc(Oc3ccccc3)cc2)OC(=O)N(Nc2ccccc2)C1=O` (racemic) [famoxadone] was run?
Answer: 23%

Question: Which pest or weed control at 2 ppm (Phytophthora infestans; Phytophthora infestans, 72 h, read-out: Efficacy in % found, Table 1, 2 ppm a.i.) does the source give for `O=[N+]([O-])c1cc(C(F)(F)F)c(Cl)c([N+](=O)[O-])c1Nc1ncc(C(F)(F)F)cc1Cl` [fluazinam] here?
Answer: 38%

Question: How did the “Efficacy in % found” value (Pythium ultimum; Table 11, 0.1 g a.i./dt) turn out when `COCC(=O)N(c1c(C)cccc1C)[C@H](C)C(=O)OC` [mefenoxam] was run?
Answer: 48%

Question: `Cc1nn(C)c(F)c1C(=O)Nc1ccccc1C(C)CC(C)C` (centres unmarked) [penflufen] was tested. Which “Efficacy in % found” value (Phytophthora infestans; Table 1, 40 ppm a.i.) did it give?
Answer: 16%

Question: With mancozeb as the compound, how does the “Efficacy in % found” value (Phytophthora infestans; Table 1, 20 ppm a.i.) read?
Answer: 33%

Question: propineb was tested. Which “Efficacy in % found” value (Phytophthora infestans; Table 2, 6.25 ppm a.i.) did it give?
Answer: 63%

Question: How did the pest or weed control at 5 ppm (Botrytis cinerea) turn out when `CC1(C(=O)Nc2ccc(O)c(Cl)c2Cl)CCCCC1` [fenhexamid] was run?
Answer: 81%

Question: How did the “Efficacy in % found” value (Phytophthora infestans; Table 2, 12.5 ppm a.i.) turn out when `CCO[PH](=O)O` [fosetyl-Al] was run?
Answer: 0%

Question: How did the pest or weed control at 1 ppm (Sphaerotheca fuliginea; [1]) turn out when `CC(C)(C)C(O)C(Oc1ccc(Cl)cc1)n1cncn1` (centres unmarked) [triadimenol] was run?
Answer: 38%

Question: With `CC(C)CC(C)c1sccc1NC(=O)c1cn(C)nc1C(F)(F)F` (centres unmarked) [penthiopyrad] as the compound, how does the pest or weed control at 40 ppm (Phytophthora infestans; [4]) read?
Answer: 31%

Question: `Cn1cc(C(=O)Nc2ccc(F)cc2-c2ccc(Cl)c(Cl)c2)c(C(F)F)n1` [bixafen, N-(3′,4′-dichloro-5-fluorobiphenyl-2-yl)-3-(difluoromethyl)-1-methyl-1H-pyrazole-4-carboxamide] was tested. Which pest or weed control at 40 ppm (Phytophthora infestans; [4]) did it give?
Answer: 18%

Question: And the pest or weed control at 1 ppm (Sphaerotheca fuliginea; Podosphaera fuliginea, 168 h, Table 8, 1 ppm a.i., read-out: Efficacy in % found)?
Answer: 0%

Question: What does the source list for `O=C(Nc1ccccc1-c1ccc(Cl)cc1)c1cccnc1Cl` [boscalid]?
Answer: pest or weed control at 40 ppm (Phytophthora infestans; [4]): 26%; pest or weed control at 10 ppm (Botrytis cinerea): 73%

Question: For `CCCOC(=O)NCCCN(C)C` [propamocarb-HCl], which pest or weed control at 12.5 ppm (Phytophthora infestans; [3]) is on record?
Answer: 20%

Question: How did the pest or weed control at 100 ppm (Phytophthora infestans; Phytophthora infestans, 72 h, read-out: Efficacy in % found, Table 4, 100 ppm a.i.) turn out when `CCCN(CCOc1c(Cl)cc(Cl)cc1Cl)C(=O)n1ccnc1` [prochloraz] was run?
Answer: 26%

Question: For `Cn1cc(C(=O)Nc2ccccc2C2CC2C2CC2)c(C(F)F)n1` (centres unmarked) [sedaxane], which “Efficacy in % found” value (Phytophthora infestans; Table 1, 40 ppm a.i.) is on record?
Answer: 37%

Question: For `Cc1ccc(-c2c(Cl)nc(C#N)n2S(=O)(=O)N(C)C)cc1` [cyazofamid], which pest or weed control at 0.4 ppm (Phytophthora infestans; [2]) is on record?
Answer: 49%

Question: Which pest or weed control at 50 ppm (Botrytis cinerea; Table 10, 50 ppm a.i.) does the source give for `O=C1c2ccccc2C(=O)N1SC(Cl)(Cl)Cl` [folpet] here?
Answer: 79%

Question: Which results are given for `O=C(NCCc1ncc(C(F)(F)F)cc1Cl)c1ccccc1C(F)(F)F` [fluopyram, N-{2-[3-chloro-5-(trifluoromethyl)pyridin-2-yl]ethyl}-2-(trifluoromethyl)benzamide]?
Answer: pest or weed control at 25 ppm (Phytophthora infestans; Phytophthora infestans, 72 h, read-out: Efficacy in % found, Table 3, 25 ppm a.i.): 9%; pest or weed control at 10 ppm (Botrytis cinerea): 70%
